Source: publication PMC5688144, “Assay interference and off-target liabilities of reported histone acetyltransferase inhibitors” (Nature Communications, 2017)
Where two headings read alike, the source gives them in different places.

Experiments:
five tested HATs = assay: HAT selectivity panel with DTT (Reaction Biology); assay type: biochemical; settings: 10 μM compound; DTT in reaction buffer
Procedure: Selectivity profiles vs. HATs, HDACs, SIRTs, HMTs, proteases, kinases, and phosphatases were performed by Reaction Biology Corporation (Malvern, PA; Fig. 3 and Supplementary Fig. 3). Percent activity was normalized to DMSO-only controls. Reference control compounds were included in each assay.
Relevant reaction procedures for each target class are briefly summarized (see reactionbiology.com for additional details). HATs: reaction buffer 50 mM Tris–HCl, pH 8.0, 50 mM NaCl, 0.1 mM EDTA, ± 1 mM DTT, 1 mM PMSF, 1% DMSO; substrate [^3H]-acetyl-CoA; reaction time 1 h; end-point measurement. HDACs: reaction buffer 50 mM Tris–HCl, pH 8.0, 137 mM NaCl, 2.7 mM KCl, 1 mM MgCl2, 1 mg mL^−1 BSA, 1% DMSO; fluorogenic substrate p53 residues 379–382 (RHKK(Ac)-AMC) (HDAC1/2/3/6/10), fluorogenic substrate p53 residues 379–382 (RHK(Ac)K(Ac)AMC) (HDAC8); fluorogenic substrate trifluoroacetyl lysine (HDAC4/5/7/9/11); pre-incubation included; reaction time 1–2 h; trichostatin A or TMP269 quencher; fluorescent readout λexcite = 360 nm, λemission = 460 nm; end-point measurement. SIRTs: reaction buffer 50 mM Tris–HCl, pH 8.0, 137 mM NaCl, 2.7 mM KCl, 1 mM MgCl2, 1 mg mL^−1 BSA, 1% DMSO; fluorogenic substrate p53 residues 379–382 (RHKK(Ac)-AMC) (SIRT1/2/3); fluorogenic substrate Ac-Lys(Succ)-AMC (SIRT5); substrate: 500 µM NAD^+; reaction time 2 h; nicotinamide quencher; fluorescent readout λexcite = 360 nm, λemission = 460 nm; end-point measurement (1.5 h development). HMTs: reaction buffer 50 mM Tris–HCl, pH 8.0, 0.01% Brij35, 1 mM EDTA, 1 mM DTT, 1 mM PMSF, 1% DMSO (EZH2); reaction buffer 50 mM Tris–HCl, pH 7.5, 5 mM EDTA, 0.01% Brij35, 5 mM DTT, 0.1 mM PMSF, 5% glycerol, 1% DMSO; 50 mM Tris–HCl, pH 8.5, 5 mM MgCl2, 50 mM NaCl, 0.01 Brij35, 1 mM DTT, 1% DMSO (G9a); methyl donor 1 μM S-Adenosyl-L-[methyl-^3H]-methionine; substrate 5 μM histone proteins or 0.05 mg mL^−1 nucleosomes; pre-incubation time 10–15 min; reaction time 0.5–1 h; end-point measurement. Caspases: reaction buffer 50 mM HEPES, pH 7.4, 1 M citrate, 100 mM NaCl, 0.01% CHAPS, 0.1 mM EDTA, 10 mM DTT; fluorogenic peptide substrate; pre-incubation time 10 min; reaction time 2 h; time-course measurement. Kinases: reaction buffer 20 mM HEPES, pH 7.5, 10 mM MgCl2, 1 mM EGTA, 0.02% Brij35, 0.02 mg mL^−1 BSA, 0.1 mM Na3VO4, 2 mM DTT, 1% DMSO; substrate [^33P]-ATP; reaction time 2 h; end-point measurement.

PCAF = target: T1, PCAF (Homo sapiens, UniProt Q92831); settings: cited from earlier work
T1 construct: Reaction Biology Corporation (assays run by this contract lab)

p300/CBP = settings: original report; 27 (Supplementary References); cited from earlier work
GCN5 = settings: cited from earlier work
[1] = UPLC-MS gross compound stability in assay buffer; settings: 25 mM sodium phosphate, pH 7.0, 30 °C, no GSH or CoA
Procedure: Select compounds were incubated up to 24 h for additional stability analyses. Chromatograms and mass spectra were qualitatively analyzed for the formation of new peaks and/or loss of parent peaks.

[2] = Fluorescence quenching counter-screen; assay type: physicochemical; settings: 10 μM fluorophore; 32 nM-100 μM compound
Procedure: Selected test compounds were assessed for fluorescence quenching using adaptions of previously published procedures[9],[24]. Briefly, test compounds and individual fluorophore standards were incubated together. The fluorescence intensity of these mixtures was compared to the fluorescence intensity of the same fluorophore standards minus test compounds. Each microplate contained positive control columns (DMSO plus fixed concentration of a single fluorophore), negative control columns (DMSO), and experimental wells (test compounds plus fixed concentration of a single fluorophore). […] Final concentration of DMSO was constant at 2.0% (v/v). […] All measurements were performed in ALARM NMR buffer (25 mM sodium phosphate, pH 7.0) at 25 °C. Aliquots of 20 μL buffer were dispensed into microplate wells via ThermoFisher Multidrop dispenser. Microplates were shaken for 1 min on a plate shaker, centrifuged briefly for 1 min at 1000×g, then allowed to incubate at RT for 10 min before measuring fluorescence intensity on a SpectraMax M3 plate reader under reduced lighting. Instrument settings for each fluorophore were unchanged from the aforementioned autofluorescence studies.

Absorbance spectra = assay type: physicochemical; settings: for Absorption max (nm) / Absorbance counter-screen: 25 mM sodium phosphate, pH 7.0; for Absorbance counter-screen: 300-750 nm; for Molar absorptivity: at absorption max
Summary of the method: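 Spectra from 300 to 750 nm were recorded at 100, 50 and 10 μM final compound in 25 mM sodium phosphate pH 7.0 with 2.0% DMSO, after 10 min at RT, read at 25 °C. Significant absorbance meant molar absorptivity above 2000 M^−1 cm^−1 at wavelengths above 300 nm.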

CBP = settings: original report; 22 (Supplementary References); cited from earlier work
[3] = @ 10 µM, ref 5 (Supplementary References)
[4] = @ 5 µM, ref 16 (Supplementary References)

T1 sequence (Q92831 whole entry, species assumed): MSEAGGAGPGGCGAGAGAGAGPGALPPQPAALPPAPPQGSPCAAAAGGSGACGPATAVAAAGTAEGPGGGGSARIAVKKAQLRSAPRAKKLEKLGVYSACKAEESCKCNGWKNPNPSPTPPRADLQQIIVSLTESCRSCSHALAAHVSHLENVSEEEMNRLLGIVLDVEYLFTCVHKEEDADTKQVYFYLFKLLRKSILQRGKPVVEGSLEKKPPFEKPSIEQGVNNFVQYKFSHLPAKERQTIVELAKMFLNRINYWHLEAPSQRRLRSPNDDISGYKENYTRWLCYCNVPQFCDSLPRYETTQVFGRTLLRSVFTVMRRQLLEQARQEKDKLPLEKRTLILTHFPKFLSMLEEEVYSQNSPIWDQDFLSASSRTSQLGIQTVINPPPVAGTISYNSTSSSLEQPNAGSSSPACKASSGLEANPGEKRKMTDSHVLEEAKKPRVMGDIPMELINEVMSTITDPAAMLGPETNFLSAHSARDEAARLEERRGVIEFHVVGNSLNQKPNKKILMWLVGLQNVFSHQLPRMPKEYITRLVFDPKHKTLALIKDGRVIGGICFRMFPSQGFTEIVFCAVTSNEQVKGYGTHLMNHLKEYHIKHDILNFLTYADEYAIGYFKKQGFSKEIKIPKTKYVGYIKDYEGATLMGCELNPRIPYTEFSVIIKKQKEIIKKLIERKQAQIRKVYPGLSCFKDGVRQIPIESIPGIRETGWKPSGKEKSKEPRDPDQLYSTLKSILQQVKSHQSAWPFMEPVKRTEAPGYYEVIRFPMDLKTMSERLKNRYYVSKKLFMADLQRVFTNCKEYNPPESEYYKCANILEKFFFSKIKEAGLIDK

Compound	activity vs. the five tested HATs (five tested HATs)	% inhibition, PCAF (PCAF; [3]) [%]	IC50 (p300/CBP) [µM]	% inhibition, GCN5 (GCN5; [3]) [%]	UPLC-MS buffer stability counter-screen [1]	Quenching counter-screen [2]	Absorption max (nm) (Absorbance spectra)	Absorbance counter-screen (Absorbance spectra)	Molar absorptivity (Absorbance spectra) [M⁻¹ cm⁻¹]	IC50 (PCAF; H4 peptide substrate, ref 7 (Supplementary References)) [µM]	IC50 (CBP) [µM]	% inhibition, PCAF (PCAF; [4]) [%]	% inhibition, GCN5 (GCN5; [4]) [%]	IC50 (PCAF; original report, 27 (Supplementary References)) [µM]	IC50 (GCN5; original report, 22 (Supplementary References)) [µM]
CC1=NN(c2ccc(C(=O)O)cc2)C(=O)/C1=C/c1ccc(-c2cc(C)c(C)cc2[N+](=O)[O-])o1 [Compound 1, C646]	potent inhibition of at least one HAT	< 10	[…]	< 10	Gross degradation observed; loss of parent peak, appearance of new peaks	Flagged (Significant fluorescence quenching was defined as signal reduction greater than 25% of the corresponding fluorophore signal at any test compound concentration)	405	Flagged (Significant absorbance was defined as molar absorptivity constants greater than 2000 M^−1 cm^−1 at wavelengths greater than 300 nm)	18000	–	–	–	–	–	–
O=c1c2cccnc2sn1Cc1ccc(C(F)(F)F)cc1 [Compound 3, PU141]	minimal activity	–	–	–	Grossly stable	Negative	315	Flagged (Significant absorbance was defined as molar absorptivity constants greater than 2000 M^−1 cm^−1 at wavelengths greater than 300 nm)	2700	35.5	–	–	–	–	–
Cc1cc(O)cc(C)c1C=C1C(=O)N(Cc2ccccc2)C(=O)N(Cc2ccccc2)C1=O [Compound 4, EML425]	potent inhibition of at least one HAT	–	–	–	Grossly stable	Flagged (Significant fluorescence quenching was defined as signal reduction greater than 25% of the corresponding fluorophore signal at any test compound concentration)	425	Flagged (Significant absorbance was defined as molar absorptivity constants greater than 2000 M^−1 cm^−1 at wavelengths greater than 300 nm)	2700	–	1.1	–	–	–	–
O=C1/C(=C/c2ccc(O)c(Br)c2)CCC/C1=C\c1ccc(O)c(Br)c1 [Compound 12, HAT inhibitor II]	potent inhibition of at least one HAT	–	5	–	Gross degradation observed; loss of parent peak	Flagged (Significant fluorescence quenching was defined as signal reduction greater than 25% of the corresponding fluorophore signal at any test compound concentration)	355	Flagged (Significant absorbance was defined as molar absorptivity constants greater than 2000 M^−1 cm^−1 at wavelengths greater than 300 nm)	5100	–	–	< 1	30	–	–
COc1ccc(/C(Cl)=C(/C=O)c2ccc(OC)cc2)cc1 [Compound 18, Windorphen]	minimal activity	–	–	–	Grossly stable	Flagged (Significant fluorescence quenching was defined as signal reduction greater than 25% of the corresponding fluorophore signal at any test compound concentration)	345	Flagged (Significant absorbance was defined as molar absorptivity constants greater than 2000 M^−1 cm^−1 at wavelengths greater than 300 nm)	4300	–	51.3	–	–	> 100	> 100
Garcinol [Compound 13]	potent inhibition of at least one HAT	–	5	–	–	Flagged (Significant fluorescence quenching was defined as signal reduction greater than 25% of the corresponding fluorophore signal at any test compound concentration)	290	Negative	–	–	–	–	–	–	–
